# From patent EP0261891A2, “Pharmaceutical compositions containing etiochiolandione” (Progenics, Inc., priority 1986, dated 1988)
# Values joined by “and” are separate entries in the source; they are usually repeats but may differ in a detail not shown here. Equal entries are not always repeated.
# Tests used:
# [1] = compared with DHEA; cited from earlier work
# [2] = injection (i.m.) in man; cited from earlier work
# [3] = Absorption and blood level profiles after oral suspensions, three-way crossover; serum alpha-ET by RIA; format: in vivo, human; conditions: 200 mg oral suspension, at 4 hours past administration
# Description: Each subject received all three drugs in randomized order with a one-week wash-out period between doses. Following an overnight fast, subjects received 200 mg of test drug suspended in approximately 6 oz of apple juice. Blood samples were drawn immediately prior to drug administration and at 15 minutes, 30 minutes, 1, 2, 4, 8, 12 and 24 hours.
# [4] = Second study: body weight gain and food consumption in rats on higher-fat diet with steroid; format: in vivo, Sprague-Dawley rats; conditions: for FOOD CONSUMPTION: Av.Wks 1 - 4 (control 23.4)
# Description: A second study was carried out on male Sprague-Dawley rats with initial starting weight of 272 ± 5 gms. […] On the last day of the study the animals were dosed with approximately 1 micro Ci of ^3H labeled material (Amersham) corresponding to the treatment they had received. Groups of three animals- were sacrificed at 1 hour, 4 hours and 12 hours after dosing, and the adrenals, gonads, liver, epididymal fat pads, and blood collected for analysis. Urine and feces were also collected during the post-tracer dosing period.
# [5] = Weight gain, food consumption, fat pad and alpha-ET blood level in normal rats fed steroid in diet for three weeks; format: in vivo, Sprague-Dawley rats; conditions: for FOOD CONSUMPTION: 0.367% in diet (dose from method)
# Description: All of the above considerations make ET-dione not only suitable but preferred in the treatment of diabetes, obesity and blood suppressive disorders such as aplastic anemia.
# Food consumption and body weight were measured weekly. Blood samples were taken at the end of the study for assay of alpha-ET by RIA and measurement of serum total cholesterol, HDL-cholesterol and triglycerides. Liver weight (absolute and % of body weight), total cholesterol, % of esterified cholesterol and triglycerides in the liver were also determined. In addition, epididymal fat pad weights were measured.
structure (smiles),measurement,setting,value
"C[C@]12CC[C@H](O)C[C@H]1CC[C@@H]1[C@@H]2CC[C@]2(C)C(=O)CC[C@@H]12 [Beta-ET, 5-beta-androstan-3-beta-ol-17-one]",effectiveness in preventing the development of diabetes,[1],four times more effective than DHEA
same,pyrogenic effect,[2],little pyrogenic effect
"C[C@]12CCC(=O)C[C@H]1CC[C@@H]1[C@@H]2CC[C@]2(C)C(=O)CC[C@@H]12 [ET-dione, 5-beta-androstanedione]",free alpha-ET levels compared with alpha-ET or beta-ET administration,[3],significantly higher
same,% W vs Control Day 28,[4]; 0.4% in diet,-18.6%
same,FOOD CONSUMPTION,[4]; 0.4% in diet,22.0 g/day
same,BODY WEIGHT GAINS,"[4]; 0.4% in diet, Day 7 (control 56)",44
same,BODY WEIGHT GAINS,"[4]; 0.4% in diet, Day 14 (control 109)",89
same,BODY WEIGHT GAINS,"[4]; 0.4% in diet, Day 21 (control 145)",117
same,BODY WEIGHT GAINS,"[4]; 0.4% in diet, Day 28 (control 183)",149
same,% W vs Control Day 28,[4]; 0.8% in diet,-21.3%
same,FOOD CONSUMPTION,[4]; 0.8% in diet,20.6 g/day
same,BODY WEIGHT GAINS,"[4]; 0.8% in diet, Day 7 (control 56)",34
same,BODY WEIGHT GAINS,"[4]; 0.8% in diet, Day 14 (control 109)",83
same,BODY WEIGHT GAINS,"[4]; 0.8% in diet, Day 21 (control 145)",112
same,BODY WEIGHT GAINS,"[4]; 0.8% in diet, Day 28 (control 183)",144
same,effectiveness in reducing weight gain compared with alpha-ET,[4]; at all concentrations tested,almost twice as effective as alpha-ET
same,% W vs Control Day 21,[5]; 0.367% in diet,-16.6%
same,FOOD CONSUMPTION,"[5]; Average, mean ± S.E. (control 25.6 ± 0.6), significantly different from control (p < 0.05)",23.4 ± 0.6 g/rat/day
same,FOOD CONSUMPTION,"[5]; week 1, mean ± S.E. (control 26.8 ± 0.8)",23.0 ± 0.6 g/rat/day
same,FOOD CONSUMPTION,"[5]; week 2, mean ± S.E. (control 24.9 ± 0.6)",24.6 ± 0.5 g/rat/day
same,FOOD CONSUMPTION,"[5]; week 3, mean ± S.E. (control […] ± 0.6)",22.6 ± 0.5 g/rat/day
same,Weight,"[5]; 0.367% in diet, Day 0, mean ± S.E.",260 ± 3 g
same,W(g) (weight gain),"[5]; 0.367% in diet, Day 7 (control 48)",38 g
same,Weight,"[5]; 0.367% in diet, Day 7, mean ± S.E. (control 308 ± 5)",298 ± 2 g
same,W(g) (weight gain),"[5]; 0.367% in diet, Day 14 (control 94)",81 g
same,Weight,"[5]; 0.367% in diet, Day 14, mean ± S.E. (control 354 ± 6)",341 ± 3 g
same,W(g) (weight gain),"[5]; 0.367% in diet, Day 21 (control 121), significantly different from control (p < .05)",101 g and 101+ g
same,Weight,"[5]; 0.367% in diet, Day 21, mean ± S.E. (control 381 ± 7)",361 ± 3 g
same,Fat Pad as % of Body Wt,"[5]; 0.367% in diet, three weeks (control 1.02 ± 0.08)",0.97 ± 0.07%
same,Fat Pad Wt,"[5]; epididymal fat pad, 0.367% in diet, three weeks (control 3.88 ± 0.29)",3.50 ± 0.26 g
